In US20150050235A1, “COMPOSITION FOR ATTRACTING MALE BLUEBERRY SPANWORM MOTH” (Her Majesty the Queen in Right of Canada, as represented by …, priority 2013, published 2015):

Tests used:
[1] = test system: male I. argillacearia moths; test: Field experiment no. 1: captures of male moths in baited Delta traps; format: in vivo, Itame argillacearia; conditions: 50 μg per constituent, rubber septa in Delta traps, n=10
Procedure: Field Experiments. Two field experiments were conducted during the moth flight season in 2012. Traps were deployed in vegetative lowbush blueberry fields located in Farmington (field experiment no. 1) and Debert (field experiment no. 2), Nova Scotia. Lowbush blueberries are typically produced on a biennial cycle. After harvest, plants are pruned and enter a year-long vegetative phase.
In both field experiments, traps were arranged in a randomized complete block design with ten replicates in the first experiment and six replicates in the second field experiment. Counts of male moths in traps were done twice per week. Trap data were log10 (x+1) transformed to satisfy assumptions of normality and equal variance and were analyzed by ANOVA using Proc Mixed (SAS, 2001). Where significant differences were detected, Fisher's least significant difference (LSD) was used for multiple mean comparisons among treatments.
The first experiment attempted to clarify: (1) whether enantiomers of the tested epoxide compound differed in the ability to attract male I. argillacearia moths; and (2) whether a mixture of the tested epoxide and triene compounds was more attractive to male moths than each constituent alone.
Rubber septa (Wheaton, N.J., USA) loaded with treatments were placed within Delta® traps (Contech, Delta, British Columbia) with sticky inserts to capture moths. Traps were placed approximately 20 m apart (Cantelo et al., 1982; Hillier, 2001; Hillier et al., 2002), and suspended from iron stakes just above the blueberry canopy. The experiment had seven treatments.
Virgin female moths were held in 25 ml plastic Solo™ cups (TRA Cash and Carry, Truro, NS, Canada) perforated with approximately 20 5-mm holes. Traps were in the field from 9-26 Jul. 2012 and were emptied or replaced twice per week during this period.

[2] = test system: Itame brunneata; conditions: without (Z,Z,Z)-3,6,9-17:H in the mixture; cited from earlier work

Row | Structure (SMILES) | captures of male moths in traps (in words) [1] | capture of moths [2]
1 | CC/C=C\C/C=C\C/C=C\CCCCCCC [(Z,Z,Z)-3,6,9-17:H, Z,Z,Z-3,6,9-heptadecatriene] | Very few moths were recovered | –
2 | CCCCCCC/C=C\C/C=C\C[C@H]1O[C@H]1CC [3S,4R-epoxy-(Z,Z)-6,9-17:H, Z,Z-(3S,4R)-3,4-epoxy-6,9-heptadecadiene] | lack of captured moths | –
3 | CCCCCCC/C=C\C/C=C\C[C@@H]1O[C@@H]1CC (relative stereo) [3R,4S-epoxy-(Z,Z)-6,9-17:H, Z,Z-(3R,4S)-cis-3,4-epoxy-6,9-heptadecadiene] | a significant number of moths were found | captured
